From ChEMBL document CHEMBL1201862, “PubChem BioAssay data set” (2004)
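These data come from cells grown in 96-well plates and exposed to compound for 48 hours at five concentrations. GI50 = concentration required for 50% inhibition of growth.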 Active and inactive are the calls of the source. Rule as the data show it: active = GI50 up to about 1.1 µM and inactive = higher.

Key:
Test in all cases: NCI anticancer screen, dose series, 48 h
CAKI-1 = system: CAKI-1
SK-OV-3 = system: SK-OV-3
COLO 205 = system: COLO 205
SK-MEL-5 = system: SK-MEL-5
SNB-19 = system: SNB-19
LOX IMVI = system: LOX IMVI
OVCAR-3 = system: OVCAR-3
SK-MEL-28 = system: SK-MEL-28
HCT-116 = system: HCT-116
SN12C = system: SN12C
K562 = system: K562
SF-539 = system: SF-539
SF-268 = system: SF-268
Malme-3M = system: Malme-3M
A549 = system: A549
DMS-114 = system: DMS-114

Measured: GI50

CCCCCC/C=C1\CCC(CN2CCCC2)C1=O (stereo not given)
inactive: CAKI-1 > 38.5 µM | SK-OV-3 18.7 µM | COLO 205 16.4 µM | SK-MEL-5 18.6 µM | SNB-19 > 38.5 µM | LOX IMVI 8.3 µM | OVCAR-3 13.9 µM | SK-MEL-28 19.1 µM | HCT-116 11.9 µM | SN12C 12.9 µM | K562 3.87 µM | SF-539 19 µM | SF-268 18.5 µM | Malme-3M 19.2 µM | A549 20.5 µM | DMS-114 13.8 µM

COC1=C(C)C(=O)c2c(cc3c(c2O)C(C)(CCC=C(C)C)C(C)O3)C1=O (stereo not given)
inactive: CAKI-1 > 100 µM | SK-OV-3 > 100 µM | COLO 205 > 100 µM | SK-MEL-5 13.4 µM | SNB-19 19.2 µM | LOX IMVI 18.2 µM | OVCAR-3 > 100 µM | SK-MEL-28 > 100 µM | HCT-116 > 100 µM | SN12C 33.5 µM | K562 > 54.8 µM | SF-539 > 100 µM | SF-268 > 100 µM | Malme-3M > 76.4 µM | A549 20 µM | DMS-114 > 100 µM

CN(C)c1nnnn1-c1c(N)n(C)c(=O)n(C)c1=O
inactive: CAKI-1 > 100 µM | SK-OV-3 > 100 µM | COLO 205 > 100 µM | SK-MEL-5 > 100 µM | SNB-19 > 100 µM | LOX IMVI > 100 µM | OVCAR-3 > 100 µM | SK-MEL-28 > 100 µM | HCT-116 > 100 µM | SN12C > 100 µM | K562 > 100 µM | SF-539 > 100 µM | SF-268 > 100 µM | Malme-3M > 100 µM | A549 > 100 µM | DMS-114 > 100 µM

O=C1[C@H]2ON(c3ccccc3)C(c3ccccc3Cl)[C@H]2C(=O)N1c1ccc(Cc2ccc(N3C(=O)[C@@H]4ON(c5ccccc5)C(c5ccccc5Cl)[C@@H]4C3=O)cc2)cc1 (stereo not given in full)
inactive: CAKI-1 > 100 µM | SK-OV-3 > 100 µM | COLO 205 > 100 µM | SK-MEL-5 71.3 µM | SNB-19 > 100 µM | LOX IMVI > 100 µM | OVCAR-3 > 100 µM | SK-MEL-28 > 100 µM | HCT-116 > 100 µM | SN12C > 100 µM | K562 > 100 µM | SF-539 > 100 µM | SF-268 > 100 µM | Malme-3M > 100 µM | A549 > 100 µM | DMS-114 > 100 µM

CCOc1ccccc1/N=N/c1ccc2oc(=O)c(C(=O)Nc3cccc(C)c3)cc2c1
inactive: CAKI-1 49.8 µM | SK-OV-3 49.7 µM | COLO 205 26.7 µM | SK-MEL-5 15.1 µM | SNB-19 20.3 µM | LOX IMVI 14.7 µM | OVCAR-3 20 µM | SK-MEL-28 26 µM | HCT-116 20.2 µM | SN12C 36.3 µM | K562 23.3 µM | SF-539 25.8 µM | SF-268 29.4 µM | Malme-3M 29.9 µM | A549 42.3 µM | DMS-114 23.1 µM
